From patent publication US9364475B2, “Tablet formulation of a phosphatidylinositol 3-kinase inhibitor” (Sanofi, priority 2012, dated 2016)

Key:
[1] = biological target: PI3K (phosphatidylinositol 3-kinase) (Homo sapiens, UniProt P42336); conditions: cited from earlier work
PI3K signaling pathway = conditions: cell lines in vitro and human xenograft tumor tissue in vivo; cited from earlier work
[2] = tested on: human xenograft tumor models; conditions: multiple human xenograft tumor models; cited from earlier work
[3] = stability comparison of polymorphic forms; assay type: physicochemical; conditions: solid state, polymorphic forms of Compound (I)

PI3K (phosphatidylinositol 3-kinase), sequence (P42336 whole entry): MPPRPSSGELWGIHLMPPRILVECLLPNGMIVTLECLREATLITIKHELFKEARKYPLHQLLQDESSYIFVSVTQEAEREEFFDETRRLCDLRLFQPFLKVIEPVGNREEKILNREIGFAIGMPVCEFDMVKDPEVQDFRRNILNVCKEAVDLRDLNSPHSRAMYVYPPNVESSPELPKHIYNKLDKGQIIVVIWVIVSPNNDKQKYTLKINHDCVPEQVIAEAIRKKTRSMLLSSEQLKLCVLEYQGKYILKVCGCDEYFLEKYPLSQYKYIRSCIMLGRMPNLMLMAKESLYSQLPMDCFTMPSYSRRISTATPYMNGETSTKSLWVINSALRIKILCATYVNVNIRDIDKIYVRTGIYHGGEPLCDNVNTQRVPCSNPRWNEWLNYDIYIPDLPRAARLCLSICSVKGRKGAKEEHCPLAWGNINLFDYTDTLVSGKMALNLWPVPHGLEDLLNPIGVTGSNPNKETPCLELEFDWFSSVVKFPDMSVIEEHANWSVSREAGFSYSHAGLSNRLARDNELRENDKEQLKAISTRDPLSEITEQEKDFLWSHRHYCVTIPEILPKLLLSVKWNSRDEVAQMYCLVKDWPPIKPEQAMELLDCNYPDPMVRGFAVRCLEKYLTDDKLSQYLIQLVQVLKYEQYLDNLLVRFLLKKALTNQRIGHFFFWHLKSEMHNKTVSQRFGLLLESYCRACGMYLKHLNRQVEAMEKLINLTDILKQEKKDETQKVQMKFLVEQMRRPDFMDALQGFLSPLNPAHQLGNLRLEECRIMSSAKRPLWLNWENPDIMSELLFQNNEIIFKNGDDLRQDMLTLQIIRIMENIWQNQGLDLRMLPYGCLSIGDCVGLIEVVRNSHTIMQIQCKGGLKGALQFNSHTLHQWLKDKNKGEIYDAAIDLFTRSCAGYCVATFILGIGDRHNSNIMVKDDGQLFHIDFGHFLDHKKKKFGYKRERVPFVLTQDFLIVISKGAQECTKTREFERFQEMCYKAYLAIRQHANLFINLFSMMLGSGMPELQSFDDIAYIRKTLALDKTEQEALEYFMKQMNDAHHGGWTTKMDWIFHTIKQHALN
PI3K (phosphatidylinositol 3-kinase), sequence (P27986 whole entry partner): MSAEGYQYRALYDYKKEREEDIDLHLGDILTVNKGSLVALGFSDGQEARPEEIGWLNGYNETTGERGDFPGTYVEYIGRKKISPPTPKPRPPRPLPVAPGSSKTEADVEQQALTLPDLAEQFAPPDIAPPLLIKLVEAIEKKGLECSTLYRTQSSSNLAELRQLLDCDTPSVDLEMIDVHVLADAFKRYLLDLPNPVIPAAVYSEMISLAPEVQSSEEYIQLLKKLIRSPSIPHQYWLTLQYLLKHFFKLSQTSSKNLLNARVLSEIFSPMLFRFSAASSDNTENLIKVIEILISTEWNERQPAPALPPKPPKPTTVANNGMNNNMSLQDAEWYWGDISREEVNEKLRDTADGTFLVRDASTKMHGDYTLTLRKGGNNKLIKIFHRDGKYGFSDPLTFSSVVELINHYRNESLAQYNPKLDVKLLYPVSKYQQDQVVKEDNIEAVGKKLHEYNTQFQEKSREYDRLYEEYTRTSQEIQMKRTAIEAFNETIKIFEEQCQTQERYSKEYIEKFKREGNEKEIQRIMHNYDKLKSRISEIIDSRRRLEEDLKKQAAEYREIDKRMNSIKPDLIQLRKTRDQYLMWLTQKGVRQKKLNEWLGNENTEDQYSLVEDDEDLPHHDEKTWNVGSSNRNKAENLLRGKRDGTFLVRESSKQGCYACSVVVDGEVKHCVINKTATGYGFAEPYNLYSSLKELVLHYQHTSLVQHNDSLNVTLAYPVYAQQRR

Structure (SMILES) | inhibition of PI3K [1] | phosphorylation of multiple downstream components of the PI3K signaling pathway (PI3K signaling pathway) | tumor growth in human xenograft tumor models [2] | stability among the polymorphic forms evaluated [3]
COc1ccc(Cl)c(Nc2nc3ccccc3[nH]/c2=N\S(=O)(=O)c2cccc(NC(=O)C(C)(C)N)c2)c1 [Compound (I), N-(3-{[(2Z)-3-[(2-chloro-5-methoxyphenyl)amino]quinoxalin-2(1H)-ylidene]sulfamoyl}phenyl)-2-methylalaninamide] | potent and selective inhibitor | inhibits phosphorylation | tumor growth inhibition and tumor regression | 
COc1ccc(Cl)c(Nc2nc3ccccc3nc2NS(=O)(=O)c2cccc(NC(=O)C(C)(C)N)c2)c1 [Polymorph E, N-(3-{[(2Z)-3-[(2-chloro-5-methoxyphenyl)amino]quinoxalin-2(1H)-ylidene]sulfamoyl}phenyl)-2-methylalaninamide] |  |  |  | most stable polymorphic form
